In general, viability refers to a read-out of living cells in per cent, often relative to untreated cells.

Each structure is given as a SMILES string.

A short description of this data set: in vitro. Particulars: human, hela cells, % viability.

On to `Clc1ccc(OCc2ccccc2)c(CNCc2ccccn2)c1` [CBK269850C], for which the viability at 28.5 h, 10 µM was determined as 91.2%.

Turning to `O=C1Nc2ccc(S(=O)(=O)NCCCO)c3cccc1c23` [CBK262033], the viability at 28.5 h, 10 µM was 85.9%.

Regarding `Cc1cc(-c2ccccc2)nn(CCN2CCOCC2)c1=O` [CBK023022C], the viability at 28.5 h, 10 µM was found to be 88%.

On to `CC(=O)Nc1ccc(CN2C[C@@H]3OCC(=O)N(C)[C@@H]3C2)cc1` [CBK289240], for which the viability at 28.5 h, 10 µM came out at 85.5%.

`Cc1cccc(-c2cn3ccnc3c(N3CCN(c4ccccn4)CC3)n2)c1` [CBK066478]: the viability at 28.5 h, 10 µM was 89.3%.

Regarding `O=C(NCC1(c2ccccc2Cl)CC1)c1ccc(=O)n(CC(=O)N2CCCCC2)c1` [CBK286077], the viability at 28.5 h, 10 µM came out at 84.8%.

Take `CC(C)(C)NC(=O)CCn1c(-c2cccnc2)cc2cccnc21` [CBK282691]: the viability at 28.5 h, 10 µM stood at 109%.

`Cc1ccccc1-n1ncc2c(=O)n(CC(=O)Nc3ccccc3)cnc21` [CBK287689]: the viability at 28.5 h, 10 µM turned out to be 98.4%.

With `CC1CCN(CC(O)c2ccc3c(c2)CCCN3C(=O)C2CC2)CC1` (centres unmarked) [CBK282488], the viability at 28.5 h, 10 µM is 96.9%.

Regarding `OCCn1ncc2c(Nc3cccc(Cn4cncn4)c3)ncnc21` [CBK305965], the viability at 28.5 h, 10 µM is 115%.

`c1ccc2sc(SCc3nc4c5c6c(sc5ncn4n3)CCCC6)nc2c1` [CBK262923]: the viability at 28.5 h, 10 µM was found to be 92.5%.

Turning to `COc1ccc(S(=O)(=O)N2CCN(C(C(=O)O)c3ccc(C)cc3)CC2)cc1` (centres unmarked) [CBK296753], the viability at 28.5 h, 10 µM worked out at 104%.

`Cc1ccc(S(=O)(=O)Nc2sccc2C(=O)Nc2ccc(F)cc2)cc1` [CBK042302]: the viability at 28.5 h, 10 µM was determined as 98.5%.

As for `COc1ccc(-c2nnc(SCC(=O)O)n2-c2cccc(C(F)(F)F)c2)cc1OC` [CBK268347], the viability at 28.5 h, 10 µM was 88.7%.

In the case of `CC1CN(Cc2c(C(F)(F)F)[nH]c3ncccc23)CC(C)O1` (centres unmarked) [CBK285344], the viability at 28.5 h, 10 µM worked out at 88.5%.

For `Cc1c(NC(=S)NC(=O)C(C)C)cccc1-c1nc2ncccc2o1` [CBK269712], the viability at 28.5 h, 10 µM was found to be 98.3%.

Consider `CCNC(=O)NC[C@H]1C[C@@H]2CCN1C[C@@H]2c1cc(C2CCCC2)nc(C)n1` [CBK289122], for which the viability at 28.5 h, 10 µM turned out to be 81.6%.

For the compound `COCC(=O)NC1CCN(CC2(c3cccc(F)c3)CCCC2)CC1` [CBK282546], the viability at 28.5 h, 10 µM worked out at 108%.

With `COc1cccc(NC(=O)N[C@H]2C[C@@H](c3nc(-c4ccccn4)no3)N(C)C2)c1` [CBK288853], the viability at 28.5 h, 10 µM came out at 108%.

Regarding `O=C(/C=C/c1ccc(F)cc1)NCCc1ccc(S(=O)(=O)N2CCCC2)cc1` [CBK265227], the viability at 28.5 h, 10 µM turned out to be 81.8%.

Turning to `O=C(NCc1cccnc1)c1ccc(CSc2ccccc2)cc1` [CBK300544], the viability at 28.5 h, 10 µM was 101%.

For `COCCN(Cc1cc2ccc(C)cc2nc1O)S(=O)(=O)c1ccccc1` [CBK269216], the viability at 28.5 h, 10 µM came to 99.6%.

As for `CC(=O)c1ccc(NC(=O)C(C)SCc2ccc(C)cc2)cc1` (centres unmarked) [CBK296616], the viability at 28.5 h, 10 µM was found to be 96.7%.

With `C[C@H]1CN2CCCC2CN1Cc1cccc(F)c1F` (some centres unmarked) [CBK285454], the viability at 28.5 h, 10 µM amounted to 111%.

Take `O=C(/C=C/c1cccnc1)Nc1cccc(N2CCNCC2)c1` [CBK034128T]: the viability at 28.5 h, 10 µM came to 109%.

For `O=C1CCC(C(=O)N2CCN(S(=O)(=O)c3ccccc3Cl)CC2)N1` (centres unmarked) [CBK304561], the viability at 28.5 h, 10 µM was found to be 77.6%.

Regarding `NC(=O)C1(Cc2ccccc2-c2ccccc2)CCN(C(=O)Cc2ccccc2)CC1` [CBK285909], the viability at 28.5 h, 10 µM was 95.9%.

With `NCc1oc(-c2ccccc2)cc1C(=O)O` [CBK265941C], the viability at 28.5 h, 10 µM was determined as 89.8%.

For the compound `Nc1ncnc(Nc2cccc(C(F)(F)F)c2)n1` [CBK017403], the viability at 28.5 h, 10 µM was determined as 82.4%.

On to `CC(=O)NCCNC(=O)c1cc(Br)cnc1NCCOc1ccccc1` [CBK076232], for which the viability at 28.5 h, 10 µM is 103%.

With `CC(NC(=O)c1ccc(-n2cccc2)cc1)c1ccccn1` (centres unmarked) [CBK296619], the viability at 28.5 h, 10 µM is 91.4%.

For `COc1ccc(C(=O)CSc2nnc3n(N)cnn23)cc1` [CBK263201], the viability at 28.5 h, 10 µM came out at 94.6%.

`CC(C)(C)c1ccc(-c2ccc3ccc(N)nc3n2)cc1` [CBK061872]: the viability at 28.5 h, 10 µM is 79.3%.

`Cc1nc(CC(NC(=O)C(c2ccccc2)c2ccccc2)c2ccc(F)cc2)cc(=O)[nH]1` (centres unmarked) [CBK285669]: the viability at 28.5 h, 10 µM worked out at 101%.

Consider `Cc1ccccc1-c1ccc(C(=O)N2CCN(C)CC2)c(NCc2cccnc2)n1` [CBK076125], for which the viability at 28.5 h, 10 µM was 93.2%.

For the compound `O=C(Nc1nc2c(s1)CCCCC2)C1CCN(S(=O)(=O)c2ccc(F)cc2)C1` (centres unmarked) [CBK285708], the viability at 28.5 h, 10 µM was 111%.

In the case of `Cc1c(C(=O)Nc2cccc(S(=O)(=O)NCc3ccco3)c2)cnn1-c1ccccc1` [CBK297762], the viability at 28.5 h, 10 µM worked out at 89.7%.

On to `Cc1cccc(NCC2CCN(CC(=O)Nc3cc(C)on3)C2)n1` (centres unmarked) [CBK306118], for which the viability at 28.5 h, 10 µM came to 90.4%.

With `CC(=O)Nc1cccc(C(=O)O)c1Cl` [CBK038814], the viability at 28.5 h, 10 µM stood at 94.1%.

Turning to `Cc1cccc(C(C)(C)C)c1OCCCCNCCN` [CBK265092G], the viability at 28.5 h, 10 µM was 110%.

On to `COc1ccc(C(NC(=O)[C@H]2CCCN2C(=O)Cc2cccs2)c2ccccc2C)cn1` (some centres unmarked) [CBK075053], for which the viability at 28.5 h, 10 µM turned out to be 87%.

As for `O=C(CC1CCCO1)NS(=O)(=O)c1cccc(-c2nnco2)c1` (centres unmarked) [CBK305267], the viability at 28.5 h, 10 µM was found to be 94.3%.

With `CCN1CCN(CC(=O)N/N=C/c2ccc(F)cc2)CC1` [CBK261615], the viability at 28.5 h, 10 µM was determined as 108%.

For the compound `Cc1cc2c(cc1C)NC(CC(=O)Nc1cccc(Br)c1)C(=O)N2` (centres unmarked) [CBK269548], the viability at 28.5 h, 10 µM was 73.3%.

`Cc1nc2c(c(=O)[nH]1)CC[C@@H]1CN(C(=O)Cc3cccc(F)c3)C[C@H]21` [CBK284413]: the viability at 28.5 h, 10 µM turned out to be 80.4%.

With `CCc1oc2ccc(Cl)cc2c1C(=O)CCN1CCCCC1` [CBK009675C], the viability at 28.5 h, 10 µM is 99.1%.

`CCCc1n[nH]c(=S)n1CC(=O)NCc1ccc(OCCC(C)C)c(OC)c1` [CBK297743]: the viability at 28.5 h, 10 µM was determined as 84.4%.

Take `CC(NC(=O)c1ncoc1-c1ccc(F)cc1)c1ccccn1` (centres unmarked) [CBK283846]: the viability at 28.5 h, 10 µM was found to be 90.9%.

Take `O=C(O)CCn1oc(=O)c2ccccc21` [CBK020340]: the viability at 28.5 h, 10 µM was 89.8%.

On to `CCOc1ccc(NC(=O)N(CCOC)Cc2cnn(C)c2)cc1Cl` [CBK306697], for which the viability at 28.5 h, 10 µM is 90.3%.

In the case of `O=C1CCCN1CCOc1nccnc1-c1ccccc1Cl` [CBK106999], the viability at 28.5 h, 10 µM came out at 100%.

As to `O=C(CSc1nc2[nH]ncc2c(=O)n1-c1ccccc1)Nc1nsc(-c2ccccc2)n1` [CBK266486], the viability at 28.5 h, 10 µM amounted to 101%.

`O=S(=O)(Nc1nnc(C(F)(F)F)s1)c1ccc(Oc2ccccc2)cc1` [CBK062007]: the viability at 28.5 h, 10 µM was 92.6%.

`CNC(=O)c1sc2ccccc2c1C1CCN(Cc2ccc(Oc3ncccn3)cc2)C1` (centres unmarked) [CBK285881]: the viability at 28.5 h, 10 µM was determined as 85.9%.

Take `CNC(=O)C1(Cc2ccccc2-c2ccccc2)CCN(C(=O)Cc2ccccc2)CC1` [CBK285695]: the viability at 28.5 h, 10 µM worked out at 93.3%.

Turning to `Cc1ccc(C(=O)/C=C\Nc2ccc(S(=O)(=O)Nc3cc(C)nc(C)n3)cc2)cc1` [CBK264384], the viability at 28.5 h, 10 µM was found to be 124%.

Turning to `Cc1ccc(Cc2cnc(NC(=O)CN3CSCC3=O)s2)cc1Cl` [CBK305001], the viability at 28.5 h, 10 µM was 82%.

On to `OCCN1CCN(C(S)=NC2CCCC2)CC1` [CBK265886], for which the viability at 28.5 h, 10 µM came out at 91.6%.

With `CCOc1cc(/C=N/Nc2nncn2N)cc(I)c1O` [CBK027879], the viability at 28.5 h, 10 µM was determined as 93.6%.

As to `O=C(c1ccc(-c2cncc(-c3cc4ccccc4[nH]3)c2)cc1)N1CCOCC1` [CBK158419T], the viability at 28.5 h, 10 µM was determined as 76.1%.

`C/C(=N/O)c1ccc(OCCCOc2ccc(/C(C)=N/O)cc2)cc1` [CBK262075]: the viability at 28.5 h, 10 µM came out at 95.2%.

With `O=c1oc2ccccc2c2nc(-c3ccncc3)ncc12` [CBK288536], the viability at 28.5 h, 10 µM came to 108%.

For the compound `Cc1nc(NS(=O)(=O)/C=C/c2ccccc2)sc1C(=O)O` [CBK045553], the viability at 28.5 h, 10 µM was 84.7%.

On to `CCCc1nn(Cc2ccccn2)c(=O)c2cc3ccsc3n12` [CBK284229], for which the viability at 28.5 h, 10 µM worked out at 61.1%.

Consider `Cc1ccccc1OCC(O)CN1CCCC(C(F)(F)F)C1` (centres unmarked) [CBK304873], for which the viability at 28.5 h, 10 µM is 103%.

`Cn1ncc(N2CCC(CNC(=O)c3ccc(F)cc3Cl)C2)cc1=O` (centres unmarked) [CBK306643]: the viability at 28.5 h, 10 µM is 97.1%.

On to `CC1=C(CCN2CCCC(CO)C2)C(C)(C)CCC1` (centres unmarked) [CBK020827], for which the viability at 28.5 h, 10 µM is 88.2%.

On to `CCCOc1ccc(C(CC(=O)O)NS(=O)(=O)c2ccc(F)cc2)cc1` (centres unmarked) [CBK287139], for which the viability at 28.5 h, 10 µM was determined as 102%.

Regarding `O=C(COc1ccc([N+](=O)[O-])cc1)Nc1cccc2nsnc12` [CBK263808], the viability at 28.5 h, 10 µM was determined as 94.8%.

With `Cn1nc(-c2ccc(F)cc2)cc1C(=O)NCCn1ccnc1` [CBK281576], the viability at 28.5 h, 10 µM was found to be 87.8%.

`COc1nc2ccccc2nc1CCC(=O)NCc1ccco1` [CBK269866]: the viability at 28.5 h, 10 µM turned out to be 93.4%.

For `CCNC(=O)C1(Cc2ccc(-c3cccs3)cc2)CCN(C(=O)Cc2ccccc2)CC1` [CBK285795], the viability at 28.5 h, 10 µM worked out at 115%.

Regarding `CCC1CCCCN1CC(=O)N1CCCC1c1nc2ccccc2[nH]1` (centres unmarked) [CBK282695], the viability at 28.5 h, 10 µM was 93.5%.

For `Cc1ccc(-c2nnc(CNC(=O)C3(c4ccccc4)CC3)o2)s1` [CBK284642], the viability at 28.5 h, 10 µM worked out at 95.9%.

For `CN1CCC(N(C)C(=O)Nc2ccc3c(c2)OCCO3)C1` (centres unmarked) [CBK156008], the viability at 28.5 h, 10 µM stood at 116%.

For `C[C@H](c1ccccc1)n1c(=O)[nH]c2ncc(-c3cccc4ncccc34)nc21` [CBK064173], the viability at 28.5 h, 10 µM turned out to be 89.6%.

Turning to `CC(C)(C)NC(=O)NCC(c1ccc[nH]1)C(F)(F)F` (centres unmarked) [CBK021595], the viability at 28.5 h, 10 µM was 92.3%.

Turning to `COc1ccc(CCOc2nccnc2-c2ccsc2)cc1` [CBK106775], the viability at 28.5 h, 10 µM is 72%.

`CCn1c(C(C)NC2CCN(CC(=O)OC)CC2)nc2ccccc21` (centres unmarked) [CBK305396]: the viability at 28.5 h, 10 µM turned out to be 97.9%.

Consider `CCOCCCNC(=O)c1cnn2c(C)c(Cc3cccc(OC)c3)c(C)nc12` [CBK162056], for which the viability at 28.5 h, 10 µM came out at 113%.
